Patent US5239083A, “Indole derivatives which inhibit steroid 5α reductase” (Kyowa Hakko Kogyo Co., Ltd., priority 1991, dated 1993)

System: steroid 5α-reductase
Test: Inhibition effects on steroid 5α-reductase activity (rat prostate enzyme, [4-14C]-testosterone)
Assay type: biochemical, male rats
Settings: pH 6.5, 37° C., 20 minutes
Procedure: The measurements of inhibition effects of test compounds on steroid 5α-reductase activity were performed according to the method described by Liang et al. [J. Biol. Chem., 259, 734 (1984)] as follows.
The prostates from male rats were homogenated in three tissue volumes of 20 mM sodium phosphate buffer (pH 6.5; containing 0.32M sucrose and 1 mM dithiothreitol). The homogenate was centrifuged at 140,000 X g for one hour. The precipitate was suspended in the buffer described above and the suspension was centrifuged at 140,000 X g for one hour. The precipitate was resuspended in the buffer described above and the solution (30-50 mg protein/ml) was used as enzyme in following assay.
[4-^14 C]-testosterone (1.5 nmol), NADPH (75 nmol), the enzyme (1 mg protein) and test compound in a total volume of 0.5 ml of 40 mM sodium phosphate buffer [pH 6.5, containing 1 mM dithiothreitol] was incubated at 37° C. After 20 minutes the enzyme activity was stopped by the addition of 2 ml of ethyl acetate. The mixture was then centrifuged at 1,000 g, for 5 minutes. The ethyl acetate layer was transferred to another tube and evaporated to dryness. The steroids were taken up in 50 μl of ethyl acetate and separated by thin layer chromatography (TLC) on silica gel in a developing solvent (ethyl acetate: cyclohexane=1:1). The radioactivity of testosterone and dihydrotestosterone on the TLC plate was measured by a TLC scanner.

Row | Compound | inhibition rate (%), 10^-7 M [%]
1 | 4-{2-[3-[1-(1-propylbutyl)indol-5-yl]isocrotonoyl amino]phenoxy}butyric acid [Compound 19] | 94
2 | CCCC(C)C(C)n1ccc2cc(/C(C)=C/C(=O)Nc3ccccc3OCCCC(=O)O)ccc21 (stereo not drawn) [Compound 22, 4-{2-[3-[1-(1,2-dimethylpentyl)indol-5-yl]isocrotonoylamino]phenoxy}butyric acid] | 70
3 | C/C(=C\C(=O)Nc1ccccc1OCCCC(=O)O)c1ccc2c(ccn2C(C)c2ccccc2)c1 (stereo not drawn) [Compound 38, 4-{2-[3-[1-(α-methylbenzyl)indol-5-yl]isocrotonoylamino]phenoxy}butyric acid] | 78
4 | CCC(c1ccccc1)n1ccc2cc(/C(C)=C/C(=O)Nc3ccccc3OCCCC(=O)O)ccc21 (stereo not drawn) [Compound 40, 4-{2-[3-[1-(α-ethylbenzyl)indol-5-yl]isocrotonoylamino]phenoxy}butyric acid] | 78
5 | C/C(=C\C(=O)Nc1ccc(F)cc1OCCCC(=O)O)c1ccc2c(ccn2C(c2ccccc2)c2ccccc2)c1 [Compound 48, 4-{2-[3-(1-benzhydrylindol-5-yl)isocrotonoylamino]-5-fluorophenoxy}butyric acid] | 93
6 | C/C(=C\C(=O)Nc1ccccc1OCCCC(=O)O)c1ccc2c(ccn2C(c2ccccc2)c2ccc(F)cc2)c1 (stereo not drawn) [Compound 57, 4-{2-[3-[1-(4-fluorobenzhydryl)indol-5-yl]isocrotonoylamino]phenoxy}butyricacid] | 92
7 | C/C(=C\C(=O)Nc1ccccc1OCCCC(=O)O)c1ccc2c(ccn2C(c2ccccc2)c2ccccc2F)c1 (stereo not drawn) [Compound 58, 4-{2-[3-[1-(2-fluorobenzhydryl)indol-5-yl]isocrotonoylamino]phenoxy}butyricacid] | 93
8 | C/C(=C\C(=O)Nc1ccccc1OCCCC(=O)O)c1ccc2c(ccn2C(c2ccc(F)cc2)c2ccc(F)cc2)c1 [Compound 59, 4-{2-[3-[1-(4,4'-difluorobenzhydryl)indol-5-yl]isocrotonoylamino]phenoxy}butyric acid] | 92
9 | COc1ccc(C(c2ccc(OC)cc2)n2ccc3cc(/C(C)=C/C(=O)Nc4ccccc4OCCCC(=O)O)ccc32)cc1 [Compound 60, 4-{2-[3-[1-(4,4-dimethoxybenzhydryl)indol-5-yl]isocrotonoylamino]phenoxy}butyric acid] | 87
10 | C/C(=C\C(=O)Nc1ccccc1OCCCC(=O)O)c1ccc2c(ccn2C(c2ccccc2)c2ccccn2)c1 (stereo not drawn) [Compound 63, 4-{2-[3-[1-[phenyl-(2-pyridyl)methyl]indol-5-yl]isocrotonoylamino]phenoxy}butyric acid] | 72

Continued, values first:

Row | inhibition rate (%), 10^-7 M [%] | Compound
11 | 98 | CCCC(CCC)n1ccc2cc(/C(C)=C/C(=O)Nc3ccc(F)cc3OCCCC(=O)O)ccc21 [Compound 67]
12 | 92 | CCCC(CC)n1ccc2cc(/C(C)=C/C(=O)Nc3ccccc3OCCCC(=O)O)ccc21 (stereo not drawn) [Compound 68, 4-{2-[3-[1-(1-ethylbutyl)indol-5-yl]isocrotonoylamino]phenoxy}butyric acid]
13 | 70 | C/C(=C\C(=O)Nc1ccccc1OCCCC(=O)O)c1ccc2c(ccn2C(C)CCCC(C)C)c1 (stereo not drawn) [Compound 76, 4-{2-[3-[1-(1,5-dimethylhexyl)indol-5-6l]isocrotonoylamino]phenoxy}butyric acid]
14 | 97 | C/C(=C\C(=O)Nc1ccccc1OCCCC(=O)O)c1ccc2c(ccn2C(CC(C)C)c2ccccc2)c1 (stereo not drawn) [Compound 77, 4-{2-[3-[1-[α-(2-methyl)-propylbenzyl]indol-5-yl]isocrotonoylamino]phenoxy}butyric acid]
15 | 94 | CCCC(c1ccccc1C)n1ccc2cc(/C(C)=C/C(=O)Nc3ccccc3OCCCC(=O)O)ccc21 (stereo not drawn) [Compound 78, 4-{2-[3-[1-(2-methyl-α-propylbenzyl)indol-5-yl]isocrotonoylamino]phenoxy}butyric acid]
